Paper PMC11996864, “A small-molecule inhibitor of BCL10-MALT1 interaction abrogates progression of diffuse large B cell lymphoma” (The Journal of Clinical Investigation, 2025)

Molecular target: T1, BCL10-MALT1 interaction (Homo sapiens, UniProt Q9UDY8)
T1 construct: GST-tagged recombinant human full-length MALT1 protein in solution; purchased Novus Biologicals H00010892-P01 (MALT1); NBP1-99064 (BCL10)
Experiment: ELISA-based BCL10-MALT1 protein-protein interaction assay
Details: MALT1 preincubated 1 hour with compound; read-out: IC50, inhibition of MALT1 binding to immobilized BCL10
Excerpt: A 96-well ELISA was employed, whereby His-tagged full-length BCL10 protein was immobilized in wells and exposed to GST-tagged recombinant human full-length MALT1 protein in solution, followed by detection with anti-MALT1 antibody. Details are provided in Supplemental Methods.
Plasmids. Plasmids for transfection were verified with Sanger Sequencing. Unless otherwise indicated, plasmids were made by subcloning cDNA fragments from constructs described in previous publications, as noted, and/or site directed mutagenesis. Plasmids in the pcDNA3 or pcDNA3.1 backbone include HA-MALT1(isoform B) (2), HA-MALT1(DD+Ig1-2) (aa 1- […]
MALT1(Ig1-2) V189R, HA-MALT1(Ig1-2) W203_Q205delinsAAA (Vector Builder), HA-MALT1(Ig1-2) H257_Q259delinsAAA (Vector Builder), HA-MALT1(Ig1-2) […]
ELISA-based protein-protein interaction assay. […] The plate was read at 450 nm using a spectrophotometer (Molecular Devices SpectraMax i3). […]
Cytokine ELISAs. Cytokines in cell culture supernatants were measured 20-24h after treatment with 0, 0.01, 0.03, 0.1, 0.3, 1, or 3 µM of compounds using the following ELISA kits according to the manufacturer’s instructions: Human IL-2 ELISA (BioLegend Cat# 431804), Human IL-6 ELISA (BioLegend Cat# 430504), and Human IL-10 ELISA (BioLegend Cat# 430604). […]
Mouse T-Activator CD3/C28. Supernatant was collected at 24 hours and mouse IL-2 levels were analyzed via ELISA (R&D Systems, Cat# DY402-05).

T1 sequence (Q9UDY8 1-813 isoform Q9UDY8-2): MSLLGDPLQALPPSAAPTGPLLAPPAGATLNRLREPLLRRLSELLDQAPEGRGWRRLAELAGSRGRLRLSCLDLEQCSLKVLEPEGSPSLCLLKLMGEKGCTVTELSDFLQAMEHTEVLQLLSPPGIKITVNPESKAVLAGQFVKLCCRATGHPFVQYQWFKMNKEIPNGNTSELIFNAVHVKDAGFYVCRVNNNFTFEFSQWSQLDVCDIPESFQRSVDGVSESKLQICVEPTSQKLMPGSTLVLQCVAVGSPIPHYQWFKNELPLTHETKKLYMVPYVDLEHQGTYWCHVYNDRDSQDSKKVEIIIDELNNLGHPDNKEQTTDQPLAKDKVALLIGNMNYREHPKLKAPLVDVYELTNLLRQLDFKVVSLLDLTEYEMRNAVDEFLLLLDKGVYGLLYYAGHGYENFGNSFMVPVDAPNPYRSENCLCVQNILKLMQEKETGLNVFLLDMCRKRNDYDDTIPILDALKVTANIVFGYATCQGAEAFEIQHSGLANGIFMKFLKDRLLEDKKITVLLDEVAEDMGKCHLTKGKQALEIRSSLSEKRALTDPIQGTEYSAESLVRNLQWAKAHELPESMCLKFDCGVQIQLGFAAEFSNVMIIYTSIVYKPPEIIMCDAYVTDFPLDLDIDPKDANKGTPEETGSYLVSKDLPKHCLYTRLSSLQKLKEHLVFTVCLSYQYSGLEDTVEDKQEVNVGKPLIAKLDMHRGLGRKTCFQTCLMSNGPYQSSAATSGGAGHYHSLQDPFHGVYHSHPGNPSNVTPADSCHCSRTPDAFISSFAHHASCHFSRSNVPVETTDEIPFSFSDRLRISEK

Row | Compound | IC50 [µM]
1 | O=S(=O)(NCc1ccc2c(c1)OCO2)c1ccc(Cc2ccc(S(=O)(=O)NCc3ccc4c(c3)OCO4)cc2)cc1 [M1i-124] | 16
2 | COc1ccc(CNS(=O)(=O)c2ccc(Cc3ccc(S(=O)(=O)NCc4ccc(OC)cc4)cc3)cc2)cc1 [M1i-124d1] | 34
